Test results as given in US9895353B2, “Use of L-tryptophan for the treatment of parasomnias” (Zzeemag Inc., priority 2013, dated 2018).

Columns and labels:
mild insomnia = settings: lower doses (<4 g), without altering sleep architecture; cited from earlier work
[1] = system: subjects presenting with parasomnia; assay: Case studies of subjects treated with L-tryptophan for parasomnia; type: in vivo, human
Description: A detailed analysis of a number of subjects presenting with parasomnia who were treated with L-tryptophan was performed. A selection of case reports of subjects treated with L-tryptophan are summarized below. Remarkably, L-tryptophan is useful for the treatment of subjects presenting with a variety of abnormal behavioral or physiological events occurring in association with sleep, specific sleep stages, or sleep-wake transition.

subjects with parasomnia = assay: Retrospective study of subjects with parasomnia (follow-up questionnaire and phone interview); type: in vivo, human
Description: A retrospective study was performed to evaluate the effects of L-tryoptophan on subjects with parasomnia and to look for sleep architectural differences in children before and after treatment.
Confidential charts were selected of boys and girls between the ages of 3 and 18 years with a clinical diagnosis of Parasomnias, and including behaviours of sleep walking, sleep talking, nightmares or night-terrors.
The 165 subjects that were included in the retrospective study of confidential charts were prescribed treatment with L-Tryptophan or Clonazepam, or no treatment. The exclusion criteria were children under the age 3 years or over the age 18 years and those undergoing treatment for Parasomnia at the time of the sleep study.
The diagnosis of parasomnia was made by a sleep physician and based on the clinical history together with confirmation from the polysomnographic sleep study findings.
An overnight polysomnographic sleep study and questionnaire data were collected during this study for each subject. Each of the subjects at the sleep clinic responded to a battery of questionnaires consisting of: Pediatric Daytime Sleepiness Scale (PDSS), THAT alertness scale, SNAP assessment for ADHD symptoms, Centre for Epidemiologic Studies in depression scale modified for children (CES-DC), and SCARED anxiety scale.
A follow-up questionnaire was formulated to assess for their symptoms following treatment with Tryptophan to compare values before and after treatment. A follow-up phone interview was conducted to assess the frequency of Parasomnias during and after treatment. The follow-up questionnaire included: daytime sleepiness, level of attention and concentration, ability to wake up in the morning, number of hours of sleep at night and incidence of temper tantrums.
Ninety nine (60%) of the 165 children were prescribed L-tryptophan to manage their parasomnia. The remaining were either prescribed Clonazepam (n=32) or were not prescribed anything. The latter reflected parental preference and/or clinical judgement.

[2] = Case A, current dose of 1.75 mg
[3] = Case B, 3 g one hour before bedtime
[4] = children treated with L-tryptophan
[5] = out of 69 patients who took L-Tryptophan
[6] = patients aged 3-18 years who took L-Tryptophan (n=69)
[7] = patients who took L-Tryptophan (n=69)
[8] = subjects administered L-tryptophan

In the case of N[C@@H](Cc1c[nH]c2ccccc12)C(=O)O [L-tryptophan, (2S)-2-amino-3-(1H-indol-3-yl)propanoic acid], the “decrease in sleep latency” value (mild insomnia) is given as “about half”, the daytime fatigue [1, 2] is given as “less problematic” and the nightly sleep talking [1, 2] is given as “ceased”. The “patient's sleep” value [1, 2] was “improved”, the “time to fall asleep after retiring to bed” value [1, 2] was 15 to 20 min and the “daytime somnolence or fatigue” value [1, 3] was “no observation of daytime somnolence or fatigue”. The night terrors [1, 3] was “no night terrors”, the “nightly bedwetting / enuretic episodes” value [1, 3] was “still continues to experience nightly enuretic episodes” and the tolerability ([1]; Case B, six capsules (3 g) one hour before bedtime) was “able to tolerate”. For the same compound, the daytime endurance ([1]; Case C, dosage of 2 mg) was “improved significantly”, the sleepwalking ([1]; Case C, dosage of 2 mg) was “No observed parasomnic behaviours of sleepwalking” and the “subject's sleep” value ([1]; Case C, dosage of 2 mg) was “marked improvement”. The bruxism ([1]; Case D, 2 g daily) was “declined significantly”, the sleepwalking ([1]; Case D, 2 g daily) was “no episodes of sleep walking” and the frequency of bedwetting ([1]; Case E, 4.5 g daily) was “declined substantially”. For the same compound, the “sleepwalking and sleep talking” value ([1]; Case E, 4.5 g daily) was “no longer walked or talked in their sleep”, the sleep overall ([1]; Case F, dose of 2.25 mg daily) was “improved noticeably” and the tolerability ([1]; Case F, dose of 2.25 mg daily) was “tolerated L-tryptophan well”. For the same compound, the “frequency of parasomnic events” value (subjects with parasomnia; [4]) was “reduced”, the “number of arousals in sleep” value (subjects with parasomnia; [4]) was “decreasing” and the “side effects observed, number of patients” value (subjects with parasomnia; [5]) was 7. For the same compound, the “side effects observed, percent of patients” value (subjects with parasomnia; [5]) was 10%, the “improvement in parasomnia symptoms (B or R), number of patients” value (subjects with parasomnia; [6]) was 55 and the “improvement in parasomnia symptoms (B or R), percent of patients” value (subjects with parasomnia; [6]) was 80%. For the same compound, the “no change in parasomnia symptoms (U), number of patients” value (subjects with parasomnia; [7]) was 10, the “no change in parasomnia symptoms (U), percent of patients” value (subjects with parasomnia; [7]) was 14% and the “worsening of parasomnia symptoms (W), number of patients” value (subjects with parasomnia; [7]) was 4. For the same compound, the “worsening of parasomnia symptoms (W), percent of patients” value (subjects with parasomnia; [7]) was 6%, the “alertness during the day” value (subjects with parasomnia; [8]) was “increased” and the “attention during the day” value (subjects with parasomnia; [8]) was “better”. The “number of temper tantrums” value (subjects with parasomnia; [8]) was “reduced”.
